Assay results from ChEMBL document CHEMBL4325834, “De Novo Molecular Design of a Novel Octapeptide That Inhibits In Vivo Melanogenesis and Has Great Transdermal Ability” (J Med Chem, 2018).
The source made the active and inactive calls. No cut-off for these calls is given here. Where a SMILES comes first, the peptide text is derived from it.

Experiments:
[1] = system: B16; experiment: Cytotoxicity against mouse B16 cells up to 150 uM by MTT assay relative to control; type: cell-based
[2] = system: HaCaT; experiment: Cytotoxicity against human HaCaT cells up to 150 uM by MTT assay relative to control; type: cell-based
[3] = system: LAD2; experiment: (§1) Proinflammatory activity in human LAD2 cells assessed as increase in mast-cell degranulation by measuring beta-hexosaminidase release at 0.125 mM preincubated for 30 mins followed 4-nitrophenyl-N-acetyl-beta-D-glucosaminide substrate addition and measured after 90 mins by fluorescence-based microplate reader analysis relative to control; type: ADME; conditions: lad2, 1.5 h, 125 µM
[4] = system: LAD2; experiment: as §1, with “0.5” for “0.125”; type: ADME; conditions: lad2, 1.5 h, 500 µM
[5] = system: LAD2; experiment: as §1, with “1” for “0.125”; type: ADME; conditions: lad2, 1.5 h, 1000 µM
[6] = molecular target: T1, Tyrosinase (Mus musculus) (UniProt P11344); experiment: Inhibition of TYR activity in mouse B16 cells assessed as increase in whitening at 20 uM preincubated for 72 hrs followed L-dopa substrate addition and measured after 4 hrs by fluorescence microscopy; type: cell-based
T1 sequence (whole entry): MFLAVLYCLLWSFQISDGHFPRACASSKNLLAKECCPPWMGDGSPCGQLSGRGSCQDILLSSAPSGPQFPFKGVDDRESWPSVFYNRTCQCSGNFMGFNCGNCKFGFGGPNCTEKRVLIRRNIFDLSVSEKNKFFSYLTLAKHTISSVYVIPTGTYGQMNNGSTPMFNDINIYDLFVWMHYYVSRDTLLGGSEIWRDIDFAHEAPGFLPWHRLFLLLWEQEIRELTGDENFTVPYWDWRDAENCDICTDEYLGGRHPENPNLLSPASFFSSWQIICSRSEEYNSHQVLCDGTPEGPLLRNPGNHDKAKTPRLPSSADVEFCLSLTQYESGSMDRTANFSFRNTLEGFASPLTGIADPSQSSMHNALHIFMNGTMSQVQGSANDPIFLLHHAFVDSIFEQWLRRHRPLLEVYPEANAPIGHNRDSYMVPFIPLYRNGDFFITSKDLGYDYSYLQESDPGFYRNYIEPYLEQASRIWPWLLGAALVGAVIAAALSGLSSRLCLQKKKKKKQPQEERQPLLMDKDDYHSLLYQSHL

[7] = molecular target: T1, Tyrosinase (Mus musculus); experiment: Inhibition of TYR activity in mouse B16 cells assessed as effect on pallet after exfoliation at 20 uM preincubated for 72 hrs followed L-dopa substrate addition and measured after 4 hrs by fluorescence microscopy; type: cell-based
[8] = molecular target: T1, Tyrosinase (Mus musculus); experiment: Inhibition of TYR activity in mouse B16 cells assessed as melanin levels post exfoliation at 20 uM after 72 hrs by spectrophotometric analysis relative to control; type: cell-based; parameters: scale not given: the % may be the effect or the level left
[9] = molecular target: T1, Tyrosinase (Mus musculus); experiment: Inhibition of TYR activity in mouse B16 cells 20 uM using L-dopa as substrate after 72 hrs relative to control; type: cell-based
[10] = system: B16; experiment: Downregulation of MITF protein expression in mouse B16 cells after 72 hrs by Western blot analysis; type: functional, cell-based
[11] = molecular target: MAP kinase p38 (Mus musculus) (UniProt P47811+O08911+Q9WUI1+Q9Z1B7); experiment: Effect on p38 phosphorylation in mouse B16 cells up to 80 uM after 72 hrs by Western blot analysis; type: cell-based
[12] = species: Mus musculus; experiment: Effect on ERK phosphorylation in mouse B16 cells up to 80 uM after 72 hrs by Western blot analysis; type: cell-based
[13] = system: Cavia porcellus; experiment: (§2) Anti-melanogenic activity in UVB-induced pigmentation Dunkin-Hartley guinea pig model assessed as inhibition of UV-induced melanin production administered topically using PG solvent 6 hrs before UV radiation every day for 2 weeks by Fontana-Masson-staining based assay; type: functional, organism-based
[14] = Toxicity in Dunkin-Hartley guinea pig model of UVB-induced pigmentation assessed as abnormal morphological changes in dermis at 1 mM to 2 mM administered topically 6 hrs before UV radiation every day for 2 weeks by Fontana-Masson-staining based assay; type: tissue-based, Cavia porcellus; conditions: in vivo, topical_or_ocular, 1000 µM
[15] = system: Cavia porcellus; experiment: Protection against UVB-induced pigmentation in Dunkin-Hartley guinea pig assessed as increase in whitening at 1 to 2 mM using PG solvent administered topically post UV radiation for 5 days/week for two consecutive weeks for a total 10 days by Fontana-Masson-staining based assay; type: functional, organism-based
[16] = Drug uptake in skin epidermis of brown guinea pig at 2 mM dosed topically after 30 mins using FITC-labelled compound by H and E staining-based fluorescence microscopy; type: ADME, organism-based, Cavia porcellus; conditions: in vivo, topical_or_ocular, 0.5 h, 2000 µM
[17] = Drug uptake in skin dermis of brown guinea pig at 2 mM dosed topically after 30 mins using FITC-labelled compound by H and E staining-based fluorescence microscopy; type: ADME, organism-based, Cavia porcellus; conditions: in vivo, topical_or_ocular, 0.5 h, 2000 µM
[18] = Drug uptake in skin basal layer of brown guinea pig at 2 mM dosed topically after 1 hr using FITC-labelled compound by H and E staining-based fluorescence microscopy; type: ADME, organism-based, Cavia porcellus; conditions: in vivo, topical_or_ocular, 2000 µM
[19] = molecular target: T2, Tyrosinase (Agaricus bisporus) (UniProt O42713); experiment: Potency index, ratio of IC50 for arbutin to IC50 for test compound for inhibition of mushroom tyrosinase using L-dopa as substrate assessed as reduction in dopachrome production after 20 mins by spectrophotometry
T2 sequence (whole entry): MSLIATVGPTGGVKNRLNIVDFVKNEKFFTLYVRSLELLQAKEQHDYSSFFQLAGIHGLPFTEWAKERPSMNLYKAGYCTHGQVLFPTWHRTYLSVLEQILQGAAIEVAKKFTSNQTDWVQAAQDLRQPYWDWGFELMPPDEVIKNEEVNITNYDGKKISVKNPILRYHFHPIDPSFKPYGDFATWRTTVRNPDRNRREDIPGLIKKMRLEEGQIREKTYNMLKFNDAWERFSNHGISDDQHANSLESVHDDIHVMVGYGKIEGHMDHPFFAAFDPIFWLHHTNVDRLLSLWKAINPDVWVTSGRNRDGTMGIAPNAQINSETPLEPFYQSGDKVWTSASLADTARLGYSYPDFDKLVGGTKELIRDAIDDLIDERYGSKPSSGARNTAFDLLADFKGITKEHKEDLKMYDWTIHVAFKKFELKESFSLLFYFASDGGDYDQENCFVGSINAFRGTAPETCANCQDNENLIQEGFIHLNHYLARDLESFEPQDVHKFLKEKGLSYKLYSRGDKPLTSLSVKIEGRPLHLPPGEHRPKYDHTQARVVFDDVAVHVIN

[20] = molecular target: T2, Tyrosinase (Agaricus bisporus); experiment: Inhibition of mushroom tyrosinase using L-dopa as substrate assessed as reduction in L-dopa oxidation at IC50 by spectrophotometry
[21] = system: Cavia porcellus; experiment: as §2, with “production in epidermis basal layer at 1 to 2 mM” for “production”; type: functional, organism-based
[22] = system: Cavia porcellus; experiment: as §2, with “production in epidermis basal layer at 1 to 2 mM” for “production”, “CP hydrogel” for “PG solvent”; type: functional, organism-based
[23] = system: Cavia porcellus; experiment: Protection against UVB-induced pigmentation in Dunkin-Hartley guinea pig assessed as increase in whitening at 1 to 2 mM using CP hydrogel administered topically post UV radiation for 5 days/week for two consecutive weeks for a total 10 days by Fontana-Masson-staining based assay; type: functional, organism-based

SMILES: CC(C)[C@H](NC(=O)[C@H](CCCNC(=N)N)NC(=O)[C@H](Cc1ccccc1)NC(=O)[C@H](CS)NC(=O)[C@H](CCCNC(=N)N)NC(=O)[C@@H](N)[C@@H](C)O)C(=O)N[C@@H](CS)C(=O)N[C@@H](CO)C(=O)O (H-TRCFRVCS-OH)
- Activity [1]: 10%
- Activity [2]: 9%
- Activity [3]: 3.87%
- Activity [4]: 7.15%
- Activity [5]: 9.41%
- inhibition [6]: Active
- Activity [7]: Active
- Activity [8]: 52.2%
- inhibition [9]: 25.7%
- inhibition [10]: Active
- Activity [11]: inactive
- Activity [12]: inactive
- Activity [13]: Dose-dependent effect
- Activity [14]: Non-Toxic
- Activity [15]: Active
- Drug uptake [16]: Active
- Drug uptake [17]: Active
- Drug uptake [18]: Active
- Ratio IC50 [19]: 10
- inhibition [20]: Active
- Activity [21]: Active
- Activity [22]: Active
- Activity [23]: Active
